Laboratory results as given in patent publication US11324698B2, “Sterically stabilized carrier for aerosol therapeutics, compositions and methods for treating the respiratory tract of a mammal” (VGSK Technologies, Inc., priority 2003, dated 2022).

Experiments:
sensitized mice = experiment: Preliminary dose-response study of daily nebulized BUD in sensitized mice; type: in vivo; conditions: daily nebulization
Experimental: The dose of BUD chosen was based on preliminary dose-response studies with 5 to 50 μg of BUD as follows.
Each day, 5, 10, 15, 20 or 50 μg of BUD was administered via nebulization to groups of sensitized mice, and the dose-dependent effects on the inflammatory parameters were evaluated.

[1] = BUD alone; cited from earlier work

## CCCC1O[C@@H]2C[C@H]3[C@@H]4CCC5=CC(=O)C=C[C@]5(C)[C@H]4[C@@H](O)C[C@]3(C)[C@]2(C(=O)CO)O1 (stereo partly drawn) [Daily BUD, budesonide]
Sensitized mice; 20 μg/ml dose of BUD, histopathologic examination
  toxicity to the spleen, liver, bone morrow or gastrointestinal tract: without evidence of toxicity
Sensitized mice; preliminary dose-response study
  granulomas or abnormalities in tissues: no granulomas or abnormalities in any of the tissues evaluated
[1]
  effective life in the lungs: no more than one day
